Measurements: patent publication US7189351B2, “D-tagatose as an anti-biofilm agent” (priority 2001, dated 2007)

Tests used:
[1] = system: Actinomyces naeslundii PK29/Streptococcus mitis J22; experiment: reversal of coaggregation, visual score; type: cell-based; settings: pair PK29/J22; sugar 750 mM; water score 4; scale 0 no visible to 4 maximum coaggregation
Description: (§1) Fifteen oral isolates, including both early colonizers (Streptococcus and Actinomyces) and late colonizers (Fusobacterium, Porphyromonas, Prevotella, Veillonella, Capnocytophaga, and Actinobacillus), were tested for their ability to coaggregate with each other, followed by testing for the reversal of coaggregation by the addition of D-tagatose. Bacterial strains used were of human gingival crevice origin. The coaggregation was examined visually by a scoring system ranging from 0 for no visible coaggregation to 4 for maximum coaggregation [Cisar J. O., Kolenbrander P. E., and McIntire F. C., “Specificity of coaggregation reactions between human oral streptococci and strains of Actinomyces viscosus or Actinomyces naeslundii”, Infect. Immun., 24:742–752. 1979]. D-Tagatose, at a concentration of less than 750 mM, completely reversed the coaggregation of 17 (60%) of 28 strong coaggregating pairs (with a coaggregation score of 2 or higher) tested. […] These D-tagatose sensitive coaggregations were D-galactose reversible as well.
(§2) Pairs of various species of oral bacteria were tested for coaggregation, and for reversal of coaggregation when D-tagatose or D-galactose was administered.

[2] = system: Actinomyces naeslundii PK29/Streptococcus morbillorum PK509; experiment: reversal of coaggregation, visual score; type: cell-based; settings: pair PK29/PK509; sugar 200 mM; water score 2; scale 0 no visible to 4 maximum coaggregation
Description: as §1, §2

[3] = system: Actinomyces naeslundii PK947/Streptococcus mitis J22; experiment: reversal of coaggregation, visual score; type: cell-based; settings: pair PK947/J22; sugar 200 mM; water score 2; scale 0 no visible to 4 maximum coaggregation
Description: as §1, §2

[4] = system: Actinomyces naeslundii PK947/Streptococcus oralis C104; experiment: reversal of coaggregation, visual score; type: cell-based; settings: pair PK947/C104; sugar 200 mM; water score 2; scale 0 no visible to 4 maximum coaggregation
Description: as §1, §2

[5] = system: Actinomyces naeslundii PK947/Streptococcus oralis SO34; experiment: reversal of coaggregation, visual score; type: cell-based; settings: pair PK947/SO34; sugar 200 mM; water score 3; scale 0 no visible to 4 maximum coaggregation
Description: as §1, §2

[6] = system: Actinomyces naeslundii PK29/Streptococcus oralis C104; experiment: reversal of coaggregation, visual score; type: cell-based; settings: pair PK29/C104; sugar 750 mM; water score 4; scale 0 no visible to 4 maximum coaggregation
Description: as §1, §2

[7] = system: Actinomyces naeslundii PK29/Streptococcus oralis SO34; experiment: reversal of coaggregation, visual score; type: cell-based; settings: pair PK29/SO34; sugar 750 mM; water score 4; scale 0 no visible to 4 maximum coaggregation
Description: as §1, §2

[8] = system: Fusobacterium nucleatum PK1594/Actinobacillus actinomycetemcomitans JP2; experiment: reversal of coaggregation, visual score; type: cell-based; settings: pair PK1594/JP2; sugar 600 mM; water score 3; scale 0 no visible to 4 maximum coaggregation
Description: as §1, §2

[9] = system: Fusobacterium nucleatum PK1594/Porphyromonas gingivalis PK1924; experiment: reversal of coaggregation, visual score; type: cell-based; settings: pair PK1594/PK1924; sugar 400 mM; water score 4; scale 0 no visible to 4 maximum coaggregation
Description: as §1, §2

[10] = system: Fusobacterium nucleatum PK1594/Veillonella atypica PK1910; experiment: reversal of coaggregation, visual score; type: cell-based; settings: pair PK1594/PK1910; sugar 200 mM; water score 3; scale 0 no visible to 4 maximum coaggregation
Description: as §1, §2

[11] = system: Prevotella loescheii PK1295/Streptococcus mitis J22; experiment: reversal of coaggregation, visual score; type: cell-based; settings: pair PK1295/J22; sugar 750 mM; water score 4; scale 0 no visible to 4 maximum coaggregation
Description: as §1, §2

[12] = system: Streptococcus morbillorum PK509/Prevotella loescheii PK1295; experiment: reversal of coaggregation, visual score; type: cell-based; settings: pair PK509/PK1295; sugar 600 mM; water score 2; scale 0 no visible to 4 maximum coaggregation
Description: as §1, §2

[13] = system: Streptococcus morbillorum PK509/Streptococcus oralis C104; experiment: reversal of coaggregation, visual score; type: cell-based; settings: pair PK509/C104; sugar 750 mM; water score 3; scale 0 no visible to 4 maximum coaggregation
Description: as §1, §2

[14] = system: Streptococcus morbillorum PK509/Streptococcus oralis SO34; experiment: reversal of coaggregation, visual score; type: cell-based; settings: pair PK509/SO34; sugar 400 mM; water score 2; scale 0 no visible to 4 maximum coaggregation
Description: as §1, §2

[15] = system: Streptococcus morbillorum PK509/Veillonella atypica PK1910; experiment: reversal of coaggregation, visual score; type: cell-based; settings: pair PK509/PK1910; sugar 400 mM; water score 2; scale 0 no visible to 4 maximum coaggregation
Description: as §1, §2

[16] = system: Veillonella atypica PK1910/Streptococcus oralis C104; experiment: reversal of coaggregation, visual score; type: cell-based; settings: pair PK1910/C104; sugar 200 mM; water score 3; scale 0 no visible to 4 maximum coaggregation
Description: as §1, §2

[17] = system: Veillonella atypica PK1910/Streptococcus oralis SO34; experiment: reversal of coaggregation, visual score; type: cell-based; settings: pair PK1910/SO34; sugar 200 mM; water score 3; scale 0 no visible to 4 maximum coaggregation
Description: as §1, §2

[18] = system: Prevotella loescheii PK1295/Streptococcus oralis C104; experiment: reversal of coaggregation, visual score; type: cell-based; settings: pair PK1295/C104; sugar 750 mM; water score 4; scale 0 no visible to 4 maximum coaggregation
Description: as §1, §2

[19] = system: Prevotella loescheii PK1295/Streptococcus oralis SO34; experiment: reversal of coaggregation, visual score; type: cell-based; settings: pair PK1295/SO34; sugar 750 mM; water score 4; scale 0 no visible to 4 maximum coaggregation
Description: as §1, §2

[20] = system: coaggregating pairs of oral isolates (early and late colonizers); experiment: reversal of coaggregation among fifteen oral isolates (overall); type: cell-based, bacterial strains of human gingival crevice origin
Description: as §1, §2

[21] = system: F. nucleatum PK1594 and P. gingivalis PK1924; experiment: phase-contrast photomicrographs of coaggregation; type: cell-based, Fusobacterium nucleatum; Porphyromonas gingivalis; settings: 400 mM final concentration

`OC[C@@H](O)[C@@H](O)[C@H](O)[C@@H](O)CO` [D-Sorbitol] showed a coaggregation score [1] of 4, a coaggregation score [2] of 2 and a coaggregation score [3] of 2. It also gave a coaggregation score [4] of 1, a coaggregation score [5] of 2 and a coaggregation score [6] of 4. The coaggregation score [7] was 4, the coaggregation score [8] was 2 and the coaggregation score [9] was 3. For the same compound, the coaggregation score [10] was 1, the coaggregation score [11] was 2 and the coaggregation score [12] was 0. The coaggregation score [13] was 1, the coaggregation score [14] was 1 and the coaggregation score [15] was 0. The coaggregation score [16] was 1, the coaggregation score [17] was 1 and the coaggregation score [18] was 2. For the same compound, the coaggregation score [19] was 1, the “plaque reversibility, comparison of Table 2” value ([20]; D-tagatose and D-sorbitol at somewhat higher concentrations than D-galactose) was “markedly inferior” and the “effect on the coaggregating pairs tested” value ([20]; in contrast to D-tagatose) was “little or no effect”. The “dissociation of coaggregate clumps” value [21] was “did not dissociate the clumps”.
